Columns and labels:
[1] = system: murine Balb/c PBMCs; experiment: Frequency of PD-1 expressing cells within murine PBMCs; type: cell-based, mouse; details: 0-800 μM, 24 hours, dose dependent, unstimulated and PHA-stimulated cells
Experimental: The frequency of PD-1 expressing cells within PHA-stimulated or unstimulated murine Balb/c PBMCs was also evaluated. Cells were concurrently treated with Coenzyme Q10 (0, 12.5, 50, 200, 400 or 800 μM) for 24 hours and evaluated by flow cytometry using surface marker antibody for αCD3 and viability stains Annexin V/7AAD. Viable cells were identified by plotting Annexin V vs. 7 AAD, and gated viable cells were subjected to CD3 vs. PD-1 staining. Two experiments using two different pools of Balb/c PBMCs and one experiment using C57B1/6 PBMCs were conducted.

[2] = system: human PBMCs (T cells); experiment: Frequency of immune cell populations within PBMCs by flow cytometry; type: cell-based; details: 0-800 μM, 24 hours, dose dependent; greater effect in PHA-stimulated than unstimulated cells
Experimental: (§1) PBMCs isolated from healthy human donor leukopaks were isolated and cryopreserved. To study the effect of Coenzyme Q10, cells were thawed, rested overnight and treated with or without phytohemagglutinin (PHA). PHA is a lectin protein found in plants which activates T cells by inducing mitosis. Various concentrations of Coenzyme Q10 (0, 12.5, 50, 200, 400 or 800 μM) were added to the cells at the same time. 24 hours to 72 hours post-treatment, frequency and viability of immune cell subpopulations was evaluated, as well as proliferative potential, cytokine secretion, and inhibitory receptor surface expression.
The frequency of different immune cell populations within PHA stimulated or unstimulated human PBMCs concurrently treated with Coenzyme Q10 (0, 12.5, 50, 200, 400 or 800 μM) was evaluated by flow cytometry. 24 hours post treatment, PBMCs were analyzed for the surface markers CD3/CD8, CD3/CD4, CD3/CD56, or CD19/CD14. Frequency of immune cell subtypes was quantified by percentage of cells gated for T cells (CD3/CD8/CD4), natural killer T cells (NKT), natural killer (NK) cells, B cells, and monocytes. Cells from 5 healthy donors were tested.

[3] = system: human T cells within PBMCs; experiment: T cell proliferation by Click-iT EdU flow cytometry; type: cell-based; details: 200 μM Coenzyme Q10, 72 hours, EdU final 18 hours
Experimental: Proliferation of T cells was assessed by flow cytometry using Click-iT® EdU technology (Thermo Fisher Scientific, Waltham, Mass.), a proliferation assay that is optimized for fluorescence microscopy applications. In this assay, the modified thymidine analogue EdU is incorporated into newly synthesized DNA and fluorescently labeled with a bright, photostable Alexa Fluor® dye. PBMCs were obtained from three different human donors. PBMCs were incubated with or without PHA for 72 hours while concurrently treated with Coenzyme Q10 (200 μM). 10 μM of EdU was added for the final 18 hours and stained with Invitrogen Alexa Fluor 488 piclyl azide according to the manufacturer's protocol. Cells were then stained with surface marker antibodies for CD3/CD8, or CD3/CD4 to identify cytotoxic T cells or helper T cells, respectively. Cells were then analyzyed by flow cytometry applying gating strategy.

[4] = system: PD-L1 protein on the surface of mouse syngeneic tumor cell lines; experiment: PD-L1 protein on the surface of mouse syngeneic tumor cells; type: cell-based; details: with or without INFγ, IC50 amount of Coenzyme Q10, 24 hours
Experimental: The effect of Coenzyme Q10 on the level of PD-L1 protein on the surface of the mouse syngeneic tumor cells was also evaluated. Mouse syngeneic tumor cell lines from different tissue types were cultured with or without interferon γ (INFγ) in the presence or absence of their corresponding IC50 amount of Coenzyme Q10 at 37° C. for 24 hours.

[5] = system: murine Pan02 pancreatic cancer cells; experiment: Pan02 pancreatic tumor growth in C57BL/6 mice; type: in vivo, mouse; details: Day 21
Experimental: C57BL/6 mice were implanted with murine Pan02 pancreatic cancer cells and treated with different doses of Coenzyme Q10 to evaluate the effects of Coenzyme Q10 on tumor growth. C57B1/6 female mice were inoculated with 3×10^7 Pan02 cells. When tumors reached a mean volume of 100 mm^3, animals were randomized into four groups and treated with vehicle control or Coenzyme Q10 (25, 50 or 100 mg/kg) by intraperitoneal (i.p.) injection twice daily for 21 days. Tumor volume was measured twice per week.

[6] = system: EMT6/P mammary gland adenocarcinoma cells; experiment: Cell viability (CellTiter-Fluor) of mouse syngeneic tumor cell line; type: cell-based; details: 72 hours, 37° C.
Experimental: (§2) The sensitivity of mouse syngeneic tumor cell lines to Coenzyme Q10 was evaluated in vitro. Six mouse syngeneic tumor cell lines from different tissue types were exposed to increasing concentrations of Coenzyme Q10 (0-25 mM) at 37° C. for 72 hours. Cell viability was measured using CellTiter-Fluor kit (Promega, Madison, Wis.). Graphs and IC50 values were calculated using GraphPad Prism using data for at least three independent experiments. Mouse syngeneic tumor cell lines evaluated were Lewis lung carcinoma (LL2), hepatoma (Hepa1-6) skin melanoma (B16F10), colon cancer (CT26), mammary gland adenocarcinoma (EMT6/P), and renal adenocarcinoma (Renca). As shown in FIGS. 24A-24F, Coenzyme Q10 reduced viability of all of the tumor cell lines in a dose dependent manner.

[7] = system: B16F10 skin melanoma cells; experiment: as above; type: cell-based; details: B16F10, 72 hours, 37° C.
Experimental: as §2

[8] = system: Hepa1-6 hepatoma cells; experiment: as above; type: cell-based; details: Hepa1-6, 72 hours, 37° C.
Experimental: as §2

[9] = system: LL/2 Lewis lung carcinoma cells; experiment: as above; type: cell-based; details: LL/2, 72 hours, 37° C.
Experimental: as §2

[10] = system: CT26 colon cancer cells; experiment: as above; type: cell-based; details: CT26, 72 hours, 37° C.
Experimental: as §2

[11] = system: Renca renal adenocarcinoma cells; experiment: as above; type: cell-based; details: 72 hours, 37° C.
Experimental: as §2

[12] = system: human PBMCs (T cells); experiment: Viability of immune cell subpopulations within PBMCs (Annexin V/7 AAD flow cytometry); type: cell-based; details: 0-800 μM Coenzyme Q10, 24 hours, PHA-stimulated or unstimulated PBMCs
Experimental: as §1
The viability of human immune cell subpopulations within PHA-stimulated or unstimulated PBMCs concurrently treated with Coenzyme Q10 was also determined. Cells were treated with 0, 12.5, 50, 200, 400 or 800 μM Coenzyme Q10 for 24 hours. Cell populations and viability was determined by flow cytometry using combinational staining of surface markers using Annexin V/7 AAD stains. Cells from 5 healthy donors were evaluated. Total, cytotoxic and helper T cell viability after treatment with increasing Coenzyme Q10 concentrations show T cell viability increased in response to Coenzyme Q10. FIG. 17A. […]

For `COC1=C(OC)C(=O)C(C/C=C(\C)CC/C=C(\C)CC/C=C(\C)CC/C=C(\C)CC/C=C(\C)CC/C=C(\C)CC/C=C(\C)CC/C=C(\C)CC/C=C(\C)CCC=C(C)C)=C(C)C1=O` [Coenzyme Q10], the “Frequency of PD-1 negative CD3 positive T cells” value [1] was “increased”, the “Frequency of cytotoxic T cells” value [2] was “increased” and the “Frequency of helper T cells” value [2] was “increased”. For the same molecule, the “Frequency of total T cells” value [2] was “increased”, the “Proliferation of PHA-activated cytotoxic T cells” value [3] was “increased” and the “Level of PD-L1 protein on the cell surface” value [4] was “did not have any effect”. The “Percentage of Tumor Growth Inhibition” value ([5]; 25 mg/kg i.p. twice daily, p=0.2583 to control) was 7%, the “Percentage of Tumor Growth Inhibition” value ([5]; 50 mg/kg i.p. twice daily, p=0.1255 to control) was 19% and the “Percentage of Tumor Growth Inhibition” value ([5]; 100 mg/kg i.p. twice daily, p=0.0529 to control) was 26%. It also gave an IC50 [6] of 2200 µM, an IC50 [7] of 1360 µM and an IC50 [8] of 912 µM. The IC50 [9] was 237 µM, the IC50 [10] was 1910 µM and the IC50 [11] was 3750 µM. The “T cell viability (total, cytotoxic and helper T cells)” value [12] was “increased”.

From patent US20180021270A1, “METHODS FOR THE TREATMENT OF CANCER USING COENZYME Q10 IN COMBINATION WITH IMMUNE CHECKPOINT MODULATORS” (Berg LLC, priority 2016, published 2018)
